Experimental data: ChEMBL document CHEMBL5325415, “Falcipains: Biochemistry, target validation and structure-activity relationship studies of inhibitors as antimalarials” (Eur J Med Chem, 2023)
pIC50, pKd, pKi: −log10 of the molar value. Converted amounts (≈) assume the structure as drawn. Where a SMILES comes first, the peptide text is derived from it. [ ]: non-standard residue; d: D form. The star is where a group is joined. Ac6c = NC1(C(=O)O)CCCCC1; Cbz = O=C(OCc1ccccc1)*; CH2F = FC*

Columns and labels:
[1] = tested on: Plasmodium falciparum; assay: Antimalarial activity against Chloroquine-sensitive Plasmodium falciparum 3D7 infected in human erythrocytes assessed as inhibition of parasite growth incubated for 72 hrs by Giemsa staining based analysis; assay type: functional, organism-based; conditions: 3D7, Erythrocyte
[2] = tested on: Plasmodium falciparum; assay: Antimalarial activity against Chloroquine-resistant Plasmodium falciparum RKL9 infected in human erythrocytes assessed as inhibition of parasite growth incubated for 72 hrs by Giemsa staining based analysis; assay type: functional, organism-based; conditions: RKL9, Erythrocyte
[3] = tested on: Plasmodium falciparum; assay: Antiplasmodial activity against Plasmodium falciparum HB3; assay type: functional, organism-based
[4] = tested on: Plasmodium falciparum; assay: Antiplasmodial activity against Plasmodium falciparum W2; assay type: functional, organism-based
[5] = target: T1, Falcipain 2 (Plasmodium falciparum, UniProt Q9N6S8); assay: Inhibition of Plasmodium falciparum Itg2 trophozite extracts FP-2 using Z-phe-Arg-AMC as substrate pretreated with enzyme for 30 mins followed by substrate addition and measured for 30 mins by spectrofluorometry
T1 sequence (Q9N6S8 whole entry): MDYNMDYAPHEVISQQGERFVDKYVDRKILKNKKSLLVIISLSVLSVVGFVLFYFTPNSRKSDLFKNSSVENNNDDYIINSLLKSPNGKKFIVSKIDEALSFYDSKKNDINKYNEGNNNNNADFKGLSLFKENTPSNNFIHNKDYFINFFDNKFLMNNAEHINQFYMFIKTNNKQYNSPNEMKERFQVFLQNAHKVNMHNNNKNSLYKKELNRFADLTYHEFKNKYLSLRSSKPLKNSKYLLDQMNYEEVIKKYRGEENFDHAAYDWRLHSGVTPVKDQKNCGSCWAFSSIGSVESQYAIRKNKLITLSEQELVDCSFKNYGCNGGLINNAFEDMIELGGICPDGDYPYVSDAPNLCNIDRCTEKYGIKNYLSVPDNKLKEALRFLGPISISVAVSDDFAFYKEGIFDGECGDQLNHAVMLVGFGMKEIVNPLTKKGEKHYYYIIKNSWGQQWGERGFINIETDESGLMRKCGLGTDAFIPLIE

[6] = tested on: Plasmodium vinckei; assay: Antimalarial activity against Plasmodium vinckei infected in Swiss webster mouse assessed as disease cure rate at 50 to 100 mg/kg, po administered twice a day for 4 days; assay type: functional; conditions: dose 50-100 mg/kg, time 4 day
[7] = tested on: Plasmodium falciparum; assay: Antiplasmodial activity against Plasmodium falciparum ItG; assay type: functional, organism-based
[8] = tested on: Plasmodium falciparum; assay: Antiplasmodial activity against Plasmodium falciparum Dd2; assay type: functional, organism-based
[9] = Inhibition of Plasmodium vinckei extracts VP-2 using Z-phe-Arg-AMC as substrate pretreated with enzyme for 30 mins followed by substrate addition and measured for 30 mins by spectrofluorometry
[10] = tested on: Plasmodium falciparum; assay: Antiplasmodial activity against Plasmodium falciparum D6; assay type: functional, organism-based
[11] = target: T1, Falcipain 2; assay: Inhibition of Plasmodium falciparum FP-2 using Z-Leu-Arg-AMC as substrate pretreated with enzyme for 30 mins followed by substrate addition and measured for 30 mins by spectrofluorometry
[12] = target: T2, Falcipain 2 (Plasmodium falciparum) (UniProt Q9N6S8); assay: Inhibition of Plasmodium falciparum FP-2 using Z-Leu-Arg-AMC as substrate at 10 uM pretreated with enzyme for 30 mins followed by substrate addition and measured for 30 mins by spectrofluorometry; conditions: time 60.0 min
T2 sequence (whole entry): T1 sequence (Q9N6S8 whole entry)

[13] = tested on: Plasmodium falciparum; assay: Antiplasmodial activity against Plasmodium falciparum FCR3; assay type: functional, organism-based
[14] = target: T1, Falcipain 2; assay: Inhibition of Plasmodium falciparum trophozite extracts FP-2
[15] = tested on: Plasmodium falciparum; assay: Antiplasmodial activity against Plasmodium falciparum ItG2; assay type: functional; conditions: read-out: LD50 (the source's name)
[16] = tested on: Cathepsin L (relative to Plasmodium falciparum FP-2); assay: Selectivity index, ratio of Ki for inhibition of human Cathepsin L to Ki for inhibition of Plasmodium falciparum FP-2; assay type: toxicity; conditions: read-out: Ratio Ki
[17] = target: T1, Falcipain 2; assay: Inhibition of Plasmodium falciparum FP-2 using Cbz-Leu-Arg-AMC as substrate and measured for 5 to 10 mins by fluorescence spectrophotometric analysis
[18] = tested on: Cathepsin B (relative to Plasmodium falciparum FP-2); assay: Selectivity index, ratio of Ki for inhibition of human Cathepsin B to Ki for inhibition of Plasmodium falciparum FP-2; assay type: toxicity; conditions: read-out: Ratio Ki
[19] = tested on: Plasmodium falciparum; assay: Antiplasmodial activity against chloroquine-sensitive Plasmodium falciparum D6 infected in human RBC assessed as inhibition of parasite growth measured after 72 hrs by Malstat assay; assay type: functional, organism-based; conditions: D6, Erythrocyte
[20] = tested on: Plasmodium falciparum; assay: Antiplasmodial activity against chloroquine-resistant Plasmodium falciparum W2 infected in human RBC assessed as inhibition of parasite growth measured after 72 hrs by Malstat assay; assay type: functional, organism-based; conditions: W2, Erythrocyte
[21] = target: T1, Falcipain 2; assay: Binding affinity to Plasmodium falciparum FP-2 by surface plasmon resonance analysis
[22] = tested on: Plasmodium falciparum; assay: Antimalarial activity against Plasmodium falciparum FCB1 infected in erythrocytes assessed as inhibition of [3H]hypoxanthine incorporation incubated for 24 to 48 hrs by beta counting analysis; assay type: functional, organism-based; conditions: FCB1, Erythrocyte
[23] = target: T1, Falcipain 2; assay: Inhibition of Plasmodium falciparum FP-2 using Z-phe-Arg-AMC as substrate pretreated with enzyme for 30 mins followed by substrate addition and measured for 30 mins by fluorescence based analysis
[24] = tested on: Plasmodium falciparum; assay: Antimalarial activity against chloroquine-sensitive Plasmodium falciparum 3D7 infected in RBC measured after 24 to 30 hrs by microscopic analysis; assay type: functional, organism-based; conditions: 3D7, Erythrocyte
[25] = target: T1, Falcipain 2; assay: Inhibition of Plasmodium falciparum FP-2 using Cbz-Phe-Arg-AMC as substrate pretreated with enzyme for 10 mins followed by substrate addition and measured after 10 mins by fluorescence based analysis
[26] = tested on: Plasmodium falciparum; assay: Antimalarial activity against chloroquine-resistant Plasmodium falciparum RKL9 infected in RBC measured after 24 to 30 hrs by microscopic analysis; assay type: functional, organism-based; conditions: RKL9, Erythrocyte

COc1ccc(/C=C(\C#N)c2nc3ccccc3[nH]2)cc1O
pIC50 [1]: 5.79
pIC50 [2]: 5.26

N#C/C(=C\c1ccc(O)cc1)c1nc2ccccc2[nH]1
pIC50 [1]: 4.32

CC(C)C[C@H](NC(=O)N1CCN(C)CC1)C(=O)N[C@H](/C=C/S(=O)(=O)c1ccc2ccccc2c1)CCc1ccccc1
pIC50 [3]: 9.72
pIC50 [4]: 9.70
pIC50 [5]: 8.70
Activity [6]: 40%
pIC50 [7]: 9.74
pIC50 [8]: 9.49
pIC50 [9]: 7.70
pIC50 [10]: 9.66

O=C(N[C@H](Cc1c[nH]c2ccccc12)C(=O)NCc1ccccc1)Oc1ccccc1
pIC50 [11]: 4.53
inhibition [12]: 29.4%

N=C(N)NCCC[C@H](NC(=O)[C@H](Cc1ccccc1)NC(=O)OCc1ccccc1)C(=O)CF (Cbz-Phe-Arg-CH2F)
pIC50 [3]: 7.00
pIC50 [4]: 7.19
pIC50 [13]: 7.19
pIC50 [14]: 9.44
LC50 [15]: 64 nM
pIC50 [10]: 7.19

Oc1ccc(-c2nccc3ccc(Cc4ccccc4)cc23)cc1
pIC50 [5]: 5.10

CC(C)C[C@H](NC(=O)N1CCN(C)CC1)C(=O)N[C@H](/C=C/S(=O)(=O)c1ccccc1)CCc1ccccc1
pIC50 [3]: 9.36
pIC50 [4]: 9.35
pIC50 [5]: 8.30
pIC50 [7]: 9.22
pIC50 [8]: 9.40
pIC50 [9]: 6.70
pIC50 [10]: 9.24

O=C(N[C@H](Cc1c[nH]c2ccccc12)C(=O)NCc1ccc([N+](=O)[O-])cc1)Oc1ccccc1
pIC50 [11]: 5.00
inhibition [12]: 49.5%

O=CCNC(=O)C1(NC(=O)OCc2ccccc2)CCCCC1 (Cbz-[Ac6c]-Gly-aldehyde)
selectivity ratio [16]: 12.6
pKi [17]: 7.19
selectivity ratio [18]: 20.8

COc1cc2ccnc(-c3ccc(OCc4ccccc4)cc3)c2cc1OC
pIC50 [5]: 5.52

O=C(/C=C\c1ccc(O)c(O)c1)O[C@H]1CO[C@@H](Oc2c(-c3ccc(O)cc3)oc3cc(O)cc(O)c3c2=O)[C@H](OC(=O)/C=C/c2ccc(O)cc2)[C@H]1O
pIC50 [11]: 6.36
pIC50 [19]: 5.54
pIC50 [20]: 5.55
pKd [21]: 4.47

O=C(N[C@H](/C=C/S(=O)(=O)c1ccccc1)CCc1ccccc1)[C@H](Cc1ccccc1)NC(=O)N1CCOCC1
pIC50 [5]: 7.10
pIC50 [9]: 7.00

COc1cc2cc(/C=C/C(=O)c3ccc(Cl)cc3Cl)c(Cl)nc2cc1OC
pIC50 [22]: 4.72
pIC50 [23]: < 4.00

COc1ccc(-c2nccc3ccc(Cc4ccccc4)cc23)cc1
pIC50 [5]: 5.00

COC(=O)c1ccc(CNC(=O)[C@@H](Cc2c[nH]c3ccccc23)NC(=O)Oc2ccccc2)cc1
pIC50 [11]: 4.88
inhibition [12]: 32.9%

Cc1ccc(-c2nn(-c3ccccc3)cc2/C=C/c2nnc(-c3ccc([N+](=O)[O-])cc3)o2)cc1
IC50 [24]: 0.486 µg/mL (≈ 1.08 µM)
pIC50 [25]: 4.80
IC50 [26]: 1.57 µg/mL (≈ 3.5 µM)

N#C/C(=C\c1cccc(Br)c1)c1nc2ccccc2[nH]1
pIC50 [1]: 4.84
pIC50 [2]: 4.36
